# Laboratory results: paper PMC2902275 (Cancer prevention research (Philadelphia, Pa.), 2009)
# Target: HDAC3 (Homo sapiens, UniProt O15379)
# Assay: preliminary enzyme kinetics of HDAC3 inhibition
# Format: biochemical
# Chain of HDAC3 (O15379 whole entry): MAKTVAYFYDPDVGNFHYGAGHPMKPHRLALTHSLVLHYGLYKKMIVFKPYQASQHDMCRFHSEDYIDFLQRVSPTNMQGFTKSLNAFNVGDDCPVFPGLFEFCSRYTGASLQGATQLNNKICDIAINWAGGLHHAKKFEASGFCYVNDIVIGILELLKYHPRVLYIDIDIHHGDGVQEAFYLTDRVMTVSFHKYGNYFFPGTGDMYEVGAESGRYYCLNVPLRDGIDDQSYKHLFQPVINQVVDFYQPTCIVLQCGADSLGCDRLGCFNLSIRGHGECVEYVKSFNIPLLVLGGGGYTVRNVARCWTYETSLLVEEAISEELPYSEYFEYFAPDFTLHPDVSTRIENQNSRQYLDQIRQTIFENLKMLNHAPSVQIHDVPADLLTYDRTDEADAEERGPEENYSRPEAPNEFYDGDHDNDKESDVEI
structure (smiles),measurement,value
"C[Se]CCC(=O)C(=O)O [KMSB, α-keto-γ-methylselenobutyrate]",Ki,~30 µM
